Experimental data as given in publication PMC6992940 (Bone Reports, 2020).

Biological target: ERα (estrogen receptor alpha) (Homo sapiens, UniProt P03372)
Assay: fluorescence polarization competitor assay
Format: binding

Sequence of ERα (estrogen receptor alpha) (P03372 whole entry): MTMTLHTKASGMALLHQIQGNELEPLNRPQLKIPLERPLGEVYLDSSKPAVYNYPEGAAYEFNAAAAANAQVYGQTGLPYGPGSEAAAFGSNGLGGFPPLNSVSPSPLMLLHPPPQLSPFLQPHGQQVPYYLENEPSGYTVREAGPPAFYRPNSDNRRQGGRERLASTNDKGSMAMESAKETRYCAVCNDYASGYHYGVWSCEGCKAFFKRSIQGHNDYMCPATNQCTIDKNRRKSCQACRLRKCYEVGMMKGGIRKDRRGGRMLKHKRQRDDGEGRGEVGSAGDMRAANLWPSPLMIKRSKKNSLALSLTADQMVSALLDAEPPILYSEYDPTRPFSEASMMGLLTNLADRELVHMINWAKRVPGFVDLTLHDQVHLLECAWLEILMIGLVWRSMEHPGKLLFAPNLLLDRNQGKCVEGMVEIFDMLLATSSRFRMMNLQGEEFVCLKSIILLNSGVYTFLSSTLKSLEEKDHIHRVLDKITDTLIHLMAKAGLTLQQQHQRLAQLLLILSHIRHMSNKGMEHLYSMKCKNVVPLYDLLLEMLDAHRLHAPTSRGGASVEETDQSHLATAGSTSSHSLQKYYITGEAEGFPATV

- IC50: 183 nM
Structure (SMILES): COc1ccc2c(C(=O)c3ccc(OCCN4CCCCC4)cc3)c(-c3ccc(O)cc3)sc2c1 [compound 2, (2-(4-hydroxyphenyl)-6-methoxybenzo[b]thiophen-3-yl)(4-(2-(piperidin-1-yl)ethoxy)phenyl)methanone]
